# Laboratory results as given in patent publication US4758580A, “Inhibiting growth of tumors with certain substituted phenoxy dimethyl alkanoic acids, esters or salts” (Yamanouchi Pharmaceutical Co., Ltd., priority 1985, dated 1988).
# Key:
# L-1210 = assay: In vitro cytotoxicity against mouse tumor cells, L-1210; type: cell-based; settings: L1210, 72 h, L-1210, 3 days, 37° C., trypan blue, read-out: IC50
# Procedure: (§1) A suspension of cells in a culture medium was transferred into wells in a microplate in an amount of 1×10^5 cells/wall. Test sample diluted with a culture medium was added to the suspension in each well, and the mixture was incubated on the medium at 37° C. for 3 days in atmosphere of air containing 5% carbon dioxide. Thereafter, the incubated cells were recovered from the microplate and the number of live cells was counted by the dye exclusion test using a 0.5% solution of trypan blue and by using a hemocytomer.
# MM-46 solid tumor = assay: Test against mouse mammalian MM-46 solid tumor; type: in vivo, C3 H/He/SLC mice; settings: 1-9 Days
# Procedure: (§2) MM-46 Tumor cells, 1×10^6, on Day 7 after intraperitoneal transplantation to C3 H/He/SLC mice were subcutaneously transplanted to the left abdomen of C3 H/He/SLC mice (5 week age, male) of 8 mice each being grouped in one (21 mice for the control group). The active component was orally administered in a definite dose 24 hours after the transplantation according to the schedule shown in Table 2. An effect of tumor growth inhibition was compared by measuring the long diameter and short diameter of the tumor on Days 14 and 21 after the transplantation, calculating the tumor size (mm^2) and determining a tumor growth inhibition rate of the active component-administered group to the control group.
# melanoma BL-6 = assay: Inhibition of experimental metastasis (to the lung) of melanoma BL-6 in mice; type: in vivo, male BDF1 /SLC mice; settings: 22th day
# Procedure: (b) Inhibition of experimental metastasis (to the lung) of melanoma BL-6 in mice
# BL-6 cancer cells, 5×10^4, were inoculated into the tail veins of male BDF1 /SLC mice (6 week age) of 6 mice each being grouped in one (13 mice for the control group). The test compounds were administered orally in a definite dose 24 hours after the inoculation. In order to see metastasis-inhibitory effect, on 22th day after the inoculation, the mice were anatomised to observe the metastasis to the lungs. The degree of metastasis was evaluated by the number of pulmonary nodules. [formula] T: Median number of pulmonary nodules of the administered group C: Median number of pulmonary nodules of the control group
# MM 46 (mammary cancer) = assay: In vitro cytotoxicity against mouse tumor cells, MM 46; type: cell-based; settings: 72 h, 3 days, 37° C., trypan blue
# Procedure: as §1
# Meth A solid tumor = assay: Anti-tumor test against methyl cholanthrene-induced Meth A solid tumor; type: in vivo, Balb/C/SLC mice; settings: 1-8 Days
# Procedure: as §2, with “Meth A tumor” for “MM-46 Tumor”, “1.5×10^6,” for “1×10^6,”, “Balb/C/SLC” for “C3 H/He/SLC”, “(16” for “(21”, “3.” for “2.”, “15” for “14”
# [1] = tested on: Meth A (methylcholanthrene-induced cancer); assay: In vitro cytotoxicity against mouse tumor cells, Meth A; type: cell-based; settings: 72 h, Meth A, 3 days, 37° C., trypan blue, read-out: IC50
# Procedure: as §1
# Ehrlich ascites tumor = assay: Anti-tumor effect against Ehrlich ascites tumor; type: in vivo, ddY/SLC mice
# Procedure: Ehlrich tumor cells, 1×10^6, on Day 7 after intraperitoneal transplantation to ddY/SLC mice were intraperitoneally transplanted to ddY/SLC mice (5 week age, male) of 10 mice each being grouped in one. The active component was intraperitoneally administered in a definite dose 24 hours after the transplantation according to the schedule shown in Table 4. An effect of tumor growth inhibition was evaluated by a percentage of the median survival day of the administered group versus that of the control group, according to the following equation.
# T: median survival day of the administered group
# C: median survival day of the control group
# MH 134 (liver cancer) = assay: In vitro cytotoxicity against mouse tumor cells, MH 134; type: cell-based; settings: 72 h, MH 134, 3 days, 37° C., trypan blue, read-out: IC50
# Procedure: as §1
# [2] = 200 mg/kg oral, 1, 2, 3, 5, 6, 7, 8, 9 and 10 days
# [3] = 400 mg/kg oral, 1, 2, 3, 5, 6, 7, 8, 9 and 10 days
# [4] = 100 mg/kg i.p., 1, 3, 6, 8 & 10 Days
smiles,measurement,setting,value
CCOC(=O)C(C)(C)CCCCOc1ccc(OCCCCCn2ccnc2)cc1 [Compound B],IC50,L-1210,1.9 µg/mL
same,Growth Inhibition Rate,"MM-46 solid tumor; Day 14, 100 mg/kg p.o.",40.4%
same,Size of Tumor,"MM-46 solid tumor; Day 14, 100 mg/kg p.o.",150.1 ± 52.1 mm^2
same,Growth Inhibition Rate,"MM-46 solid tumor; Day 14, 200 mg/kg p.o.",41.3%
same,Size of Tumor,"MM-46 solid tumor; Day 14, 200 mg/kg p.o.",147.9 ± 56.2 mm^2
same,Growth Inhibition Rate,"MM-46 solid tumor; Day 14, 400 mg/kg p.o.",47.8%
same,Size of Tumor,"MM-46 solid tumor; Day 14, 400 mg/kg p.o.",131.5 ± 55.2 mm^2
same,Growth Inhibition Rate,"MM-46 solid tumor; Day 21, 100 mg/kg p.o.",55.8%
same,Size of Tumor,"MM-46 solid tumor; Day 21, 100 mg/kg p.o.",149.4 ± 84.8 mm^2
same,Growth Inhibition Rate,"MM-46 solid tumor; Day 21, 200 mg/kg p.o.",53.4%
same,Size of Tumor,"MM-46 solid tumor; Day 21, 200 mg/kg p.o.",147.5 ± 65.3 mm^2
same,Growth Inhibition Rate,"MM-46 solid tumor; Day 21, 400 mg/kg p.o.",53.4%
same,Size of Tumor,"MM-46 solid tumor; Day 21, 400 mg/kg p.o.",157.4 ± 104.0 mm^2
same,Pulmonary metastasis-inhibition rate,melanoma BL-6; [2],50.0%
same,"The number of pulmonary nodules, median",melanoma BL-6; [2],10.5
same,"The number of pulmonary nodules, range",melanoma BL-6; [2],1-20
same,Pulmonary metastasis-inhibition rate,melanoma BL-6; [3],69.0%
same,"The number of pulmonary nodules, median",melanoma BL-6; [3],6.5
same,"The number of pulmonary nodules, range",melanoma BL-6; [3],1-14
same,IC50,MM 46 (mammary cancer),0.7 µg/mL
same,Growth Inhibition Rate,"Meth A solid tumor; Day 15, 100 mg/kg p.o.",27.5%
same,Size of Tumor,"Meth A solid tumor; Day 15, 100 mg/kg p.o.",163.0 ± 41.9 mm^2
same,Growth Inhibition Rate,"Meth A solid tumor; Day 15, 200 mg/kg p.o.",46.4%
same,Size of Tumor,"Meth A solid tumor; Day 15, 200 mg/kg p.o.",124.5 ± 60.2 mm^2
same,Growth Inhibition Rate,"Meth A solid tumor; Day 15, 400 mg/kg p.o.",53.6%
same,Size of Tumor,"Meth A solid tumor; Day 15, 400 mg/kg p.o.",104.4 ± 56.9 mm^2
same,Growth Inhibition Rate,"Meth A solid tumor; Day 21, 100 mg/kg p.o.",18.8%
same,Size of Tumor,"Meth A solid tumor; Day 21, 100 mg/kg p.o.",387.9 ± 101.8 mm^2
same,Growth Inhibition Rate,"Meth A solid tumor; Day 21, 200 mg/kg p.o.",39.2%
same,Size of Tumor,"Meth A solid tumor; Day 21, 200 mg/kg p.o.",290.8 ± 100.9 mm^2
same,Growth Inhibition Rate,"Meth A solid tumor; Day 21, 400 mg/kg p.o.",41.6%
same,Size of Tumor,"Meth A solid tumor; Day 21, 400 mg/kg p.o.",279.3 ± 152.1 mm^2
same,IC50,[1],0.8 µg/mL
same,Median Survival Day,"Ehrlich ascites tumor; 15 mg/kg i.p., 1-9 Days",16.0 days
same,No. of 40-day Survivors,"Ehrlich ascites tumor; 15 mg/kg i.p., 1-9 Days",0/8
same,T/C (median survival),"Ehrlich ascites tumor; 15 mg/kg i.p., 1-9 Days",106%
same,Median Survival Day,"Ehrlich ascites tumor; 30 mg/kg i.p., 1-9 Days",22.5 days
same,No. of 40-day Survivors,"Ehrlich ascites tumor; 30 mg/kg i.p., 1-9 Days",1/8
same,T/C (median survival),"Ehrlich ascites tumor; 30 mg/kg i.p., 1-9 Days",150.0%
same,Median Survival Day,"Ehrlich ascites tumor; 60 mg/kg i.p., 1-9 Days",21.5 days
same,No. of 40-day Survivors,"Ehrlich ascites tumor; 60 mg/kg i.p., 1-9 Days",2/8
same,T/C (median survival),"Ehrlich ascites tumor; 60 mg/kg i.p., 1-9 Days",143.3%
same,Median Survival Day,Ehrlich ascites tumor; [4],26.5 days
same,No. of 40-day Survivors,Ehrlich ascites tumor; [4],2/8
same,T/C (median survival),Ehrlich ascites tumor; [4],176.7%
same,IC50,MH 134 (liver cancer),2.2 µg/mL
